Test results taken from patent US8247211B2, “Glycopeptide antibiotics” (American Cyanamid Company, priority 2001, dated 2012).

Legend:
Assay in all cases: In vitro antibacterial evaluation: minimum inhibitory concentration (MIC), broth dilution method
Format in all cases: cell-based
Details in all cases: 18 hours at 35° C.
[1] = test system: Staphylococcus sp.
Outline: (§1)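 NCCLS M7-A2 broth dilution; Muller-Hinton II […]; 5×10^5 CFU/mL; 64-0.06 μg/mL. MIC = lowest concentration with no growth.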

[2] = test system: Escherichia coli
Outline: as §1

[3] = test system: Streptococcus sp.
Outline: as §1

[4] = test system: Enterococcus sp.
Outline: as §1

α-O-[(N-Methyl-2-methylpropylamino)carbonyl]-cyclo[glycyl-β-methylphenylalanyl-O-(4-O-hexopyranosylhexopyranosyl)tyrosyl-3-(2-iminoimidazolidin-4-yl)seryl-3-(3-hexopyranosyl-2-iminoimidazolidin-4-yl)serylseryl] [Example 255]
MIC Coagulase Negative Staphylococcus (GC 4547) ([1]; Coagulase Negative Staphylococcus (GC 4547)): 32 µg/mL | MIC Coagulase Negative Staphylococcus (GC 4548) ([1]; Coagulase Negative Staphylococcus (GC 4548)): 64 µg/mL | MIC Coagulase Negative Staphylococcus (GC 4549) ([1]; Coagulase Negative Staphylococcus (GC 4549)): 32 µg/mL | MIC Coagulase Negative Staphylococcus (GC 4551) ([1]; Coagulase Negative Staphylococcus (GC 4551)): 64 µg/mL | MIC Coagulase Negative Staphylococcus (GC 6257) ([1]; Coagulase Negative Staphylococcus (GC 6257)): 32 µg/mL | MIC Staphylococcus aureus (ATCC 29213) ([1]; Staphylococcus aureus (ATCC 29213)): >0.5 µg/mL | MIC Staphylococcus aureus (GC 1131) ([1]; Staphylococcus aureus (GC 1131)): >0.5 µg/mL | MIC Staphylococcus aureus (GC 3051) ([1]; Staphylococcus aureus (GC 3051)): 0.5 µg/mL | MIC Staphylococcus aureus (GC 3053) ([1]; Staphylococcus aureus (GC 3053)): 0.5 µg/mL | MIC Staphylococcus aureus (GC 4541) ([1]; Staphylococcus aureus (GC 4541)): 0.5 µg/mL | MIC Staphylococcus aureus (GC 4542) ([1]; Staphylococcus aureus (GC 4542)): 0.5 µg/mL | MIC Staphylococcus aureus (GC 4544) ([1]; Staphylococcus aureus (GC 4544)): 0.5 µg/mL | MIC Staphylococcus aureus (GC 4545) ([1]; Staphylococcus aureus (GC 4545)): 0.5 µg/mL | MIC Staphylococcus aureus-SMITH (GC 4543) ([1]; Staphylococcus aureus-SMITH (GC 4543)): 0.5 µg/mL | MIC Staphylococcus haemolyticus (GC 4546) ([1]; Staphylococcus haemolyticus (GC 4546)): 32 µg/mL | MIC Staphylococcus aureus (ATCC 29213) ([1]; broth dilution, strain ATCC 29213): >0.5 µg/mL | MIC Staphylococcus aureus (GC 1131) ([1]; broth dilution, strain GC 1131): >0.5 µg/mL | MIC Staphylococcus aureus (GC 3051) ([1]; broth dilution, strain GC 3051): 0.5 µg/mL | MIC Staphylococcus aureus (GC 3053) ([1]; broth dilution, strain GC 3053): 0.5 µg/mL | MIC Staphylococcus aureus (GC 4541) ([1]; broth dilution, strain GC 4541): 0.5 µg/mL | MIC Staphylococcus aureus (GC 4542) ([1]; broth dilution, strain GC 4542): 0.5 µg/mL | MIC Staphylococcus aureus-SMITH (GC 4543) ([1]; broth dilution, strain GC 4543): 0.5 µg/mL | MIC Staphylococcus aureus (GC 4544) ([1]; broth dilution, strain GC 4544): 0.5 µg/mL | MIC Staphylococcus aureus (GC 4545) ([1]; broth dilution, strain GC 4545): 0.5 µg/mL | MIC Staphylococcus haemolyticus (GC 4546) ([1]; broth dilution, strain GC 4546): 32 µg/mL | MIC Coagulase Negative Staphylococcus (GC 4547) ([1]; broth dilution, strain GC 4547): 32 µg/mL | MIC Coagulase Negative Staphylococcus (GC 4548) ([1]; broth dilution, strain GC 4548): 64 µg/mL | MIC Coagulase Negative Staphylococcus (GC 4549) ([1]; broth dilution, strain GC 4549): 32 µg/mL | MIC Coagulase Negative Staphylococcus (GC 4551) ([1]; broth dilution, strain GC 4551): 64 µg/mL | MIC Coagulase Negative Staphylococcus (GC 6257) ([1]; broth dilution, strain GC 6257): 32 µg/mL | MIC Escherichia coli (ATCC 25922) ([2]; Escherichia coli (ATCC 25922)): >0.5 µg/mL | MIC Escherichia coli (GC 4559) ([2]; Escherichia coli (GC 4559)): >0.5 µg/mL | MIC Escherichia coli (GC 4560) ([2]; Escherichia coli (GC 4560)): 0.5 µg/mL | MIC Streptococcus agalactiae (GC 4564) ([3]; Streptococcus agalactiae (GC 4564)): 32 µg/mL | MIC Streptococcus pneumoniae (GC 4565) ([3]; Streptococcus pneumoniae (GC 4565)): 16 µg/mL | MIC Streptococcus pyogenes (GC 4563) ([3]; Streptococcus pyogenes (GC 4563)): 16 µg/mL | MIC Streptococcus pyogenes (GC 4563) ([3]; broth dilution, strain GC 4563): 16 µg/mL | MIC Streptococcus agalactiae (GC 4564) ([3]; broth dilution, strain GC 4564): 32 µg/mL | MIC Streptococcus pneumoniae (GC 4565) ([3]; broth dilution, strain GC 4565): 16 µg/mL | MIC Enterococcus avium (GC 4558) ([4]; Enterococcus avium (GC 4558)): >0.5 µg/mL | MIC Enterococcus faecalis (ATCC 29212) ([4]; Enterococcus faecalis (ATCC 29212)): >0.5 µg/mL | MIC Enterococcus faecalis (GC 2242) ([4]; Enterococcus faecalis (GC 2242)): >0.5 µg/mL | MIC Enterococcus faecalis (GC 2691) ([4]; Enterococcus faecalis (GC 2691)): >0.5 µg/mL | MIC Enterococcus faecalis (GC 3059) ([4]; Enterococcus faecalis (GC 3059)): >0.5 µg/mL | MIC Enterococcus faecalis (GC 4552) ([4]; Enterococcus faecalis (GC 4552)): >0.5 µg/mL | MIC Enterococcus faecalis (GC 4553) ([4]; Enterococcus faecalis (GC 4553)): >0.5 µg/mL | MIC Enterococcus faecalis (GC 4554) ([4]; Enterococcus faecalis (GC 4554)): >0.5 µg/mL | MIC Enterococcus faecalis (GC 6189) ([4]; Enterococcus faecalis (GC 6189)): >0.5 µg/mL | MIC Enterococcus faecium (GC 2243) ([4]; Enterococcus faecium (GC 2243)): >64 µg/mL | MIC Enterococcus faecium (GC 4556) ([4]; Enterococcus faecium (GC 4556)): >64 µg/mL | MIC Enterococcus faecium (GC 4557) ([4]; Enterococcus faecium (GC 4557)): 16 µg/mL | MIC Enterococcus faecalis (ATCC 29212) ([4]; broth dilution, strain ATCC 29212): >0.5 µg/mL | MIC Enterococcus faecalis (GC 2242) ([4]; broth dilution, strain GC 2242): >0.5 µg/mL | MIC Enterococcus faecium (GC 2243) ([4]; broth dilution, strain GC 2243): >64 µg/mL | MIC Enterococcus faecalis (GC 2691) ([4]; broth dilution, strain GC 2691): >0.5 µg/mL | MIC Enterococcus faecalis (GC 3059) ([4]; broth dilution, strain GC 3059): >0.5 µg/mL | MIC Enterococcus faecalis (GC 4552) ([4]; broth dilution, strain GC 4552): >0.5 µg/mL | MIC Enterococcus faecalis (GC 4553) ([4]; broth dilution, strain GC 4553): >0.5 µg/mL | MIC Enterococcus faecalis (GC 4554) ([4]; broth dilution, strain GC 4554): >0.5 µg/mL | MIC Enterococcus faecium (GC 4556) ([4]; broth dilution, strain GC 4556): >64 µg/mL | MIC Enterococcus faecium (GC 4557) ([4]; broth dilution, strain GC 4557): 16 µg/mL | MIC Enterococcus avium (GC 4558) ([4]; broth dilution, strain GC 4558): >0.5 µg/mL | MIC Enterococcus faecalis (GC 6189) ([4]; broth dilution, strain GC 6189): >0.5 µg/mL
